These results are taken from patent US5281626A, “Benzenesulfonamide derivatives” (Eisai Co., Ltd., priority 1990, dated 1994).

The subject of assay [1] is phospholipase A2 (PLA2) contained in the supernatant fraction of rabbit heart. Description: Inhibitory activity against phospholipase A2 (PLA2) contained in the supernatant fraction of rabbit heart. In kind it is biochemical. The conditions noted are these: EGTA added, 37° C., 5 minutes. The method, then: (§1) A. Inhibitory activity against phospholipase A2 (PLA2) contained in the membrane fraction of rabbit heart or the supernatant fraction thereof (method) An NZW male rabbit was anesthetized by the intravenous administration of pentobarbital sodium to take out its heart. This heart was washed with ice cooled physiological saline to recover a ventricle, followed by the addition of ice-cooled 0.25M sucrose/20 mM tris hydrochloride buffer (pH: 8.0) in an amount of 5 ml per g of the ventricle. The obtained mixture was mashed with a homogenizer in ice water for 30 minutes and centrifuged at 1,000 g for 10 min. The supernatant was further centrifuged at 105,000 g for 60 min. The centrifugation was conducted at 0° to 4° C. The obtained supernatant was used as such as the supernatant fraction for examination. The precipitate was suspended in the same buffer as that described above and used as the membrane fraction for examination. The protein concentrations of these fractions were each adjusted to 5 mg/ml as determined by Lowry method. […] The test tubes of the membrane fraction were kept at 37° C. for 30 minutes for incubation, while those of the supernatant fraction were kept at 37° C. for 5 minutes for incubation. Each incubation was stopped by the addition of 1 ml of Dole reagent. […] The amount of ^14 C was determined with a liquid scintillation counter. Mepacrine was selected as a comparative compound. (Results)

Assay [2] has as its system phospholipase A2 (PLA2) contained in the membrane fraction of rabbit heart. In words: Inhibitory activity against phospholipase A2 (PLA2) contained in the membrane fraction of rabbit heart. In kind it is biochemical. The note with it: CaCl2 added, 37° C., 30 minutes. The procedure:
as §1

Bounds are passed on as bounds.

Turning to `CN(C(=O)/C=C/c1ccc(S(C)(=O)=O)cc1)c1ccc(S(=O)(=O)NC2CCCCN(Cc3ccccc3)C2)cc1` (racemic) [Example 9, (±)-[1-benzyl-3-hexamethyleneimino]-4-{N-methyl N-[(E)-N-3-(4-methylsulfonylphenyl)-2-propenoyl]amino)benzenesulfonamide], the “PLA2 -inhibitory activity IC30, supernatant fraction” value in assay [1] stood at 61 µM. Moreover, the “PLA2 -inhibitory activity IC30, membrane fraction” value in assay [2] was 0.015 µM.
Turning to `CN(C(=O)/C=C/c1ccc(-n2ccnc2)cc1)c1ccc(S(=O)(=O)N[C@@H]2C[C@H]3CC[C@@H]2C3)cc1` (relative stereo) [Example 31, (±)-N-(exo-2-norbornyl)-4-{N-methyl-N-[(E)-3-[4-(1-imidazolyl)phenyl]-2-propenoyl]amino}benzenesulfonamide], in assay [1], the “PLA2 -inhibitory activity IC30, supernatant fraction” value is 29 µM. In assay [2], the “PLA2 -inhibitory activity IC30, membrane fraction” value worked out at 0.42 µM.
For `CN(C(=O)/C=C/c1ccc(O)c(O)c1)c1ccc(S(=O)(=O)NC2Cc3ccccc3C2)cc1` [Example 2, N-(2-indanyl)-4-{N-methyl-N-[(E)-3-(3,4-dihydroxyphenyl)-2-propenoyl]amino}benzenesulfonamide], the “PLA2 -inhibitory activity IC30, supernatant fraction” value in assay [1] amounted to 40 µM. Further, the “PLA2 -inhibitory activity IC30, membrane fraction” value in assay [2] stood at 4.48 µM.
In the case of `CN(C(=O)/C=C/c1ccc(OC(=O)CN)c(OC(=O)CN)c1)c1ccc(S(=O)(=O)NC2Cc3ccccc3C2)cc1` [Example 3, N-(2-indanyl)-4-{N-methyl-N-[(E)-3-[3,4-diglycyloxyphenyl)-2-propenoyl]amino}benzenesulfonamide], the “PLA2 -inhibitory activity IC30, membrane fraction” value in assay [2] was found to be 2.4 µM.
As to `CN(C(=O)/C=C/c1ccc(S(C)(=O)=O)cc1)c1ccc(S(=O)(=O)NC2CCN(CCc3ccccc3)CC2)cc1` [Example 5, N-[1-(2-phenylethyl)-4-piperidyl]-4-{N-methyl-N-[(E)-3-(4-methylsulfonylphenyl) -2-propenoyl]amino}benzenesulfonamide], the “PLA2 -inhibitory activity IC30, supernatant fraction” value in assay [1] was found to be 49 µM. Moreover, in assay [2], the “PLA2 -inhibitory activity IC30, membrane fraction” value stood at 0.007 µM.
Regarding `CN(C(=O)/C=C/c1ccc(S(C)(=O)=O)cc1)c1ccc(S(=O)(=O)NC2CCCCCC2)cc1` [Example 14, N-pycloheptyl-4-(N-methyl-N-[(E)-3-(4-methylsulfonylphenyl)-2-propenoyl]amino}benzenesulfonamide], in assay [1], the “PLA2 -inhibitory activity IC30, supernatant fraction” value is > 30 µM. For the same molecule, in assay [2], the “PLA2 -inhibitory activity IC30, membrane fraction” value worked out at 0.016 µM.
On to `CN(C(=O)/C=C/c1ccc(S(C)(=O)=O)cc1)c1ccc(S(=O)(=O)NCCc2ccccn2)cc1` [Example 18, N-[2-(2-pyridyl)ethyl]-4-{N-methyl-N-[(E)-3-(4-methylsulfonylphenyl) -2-propenoyl]amino}benzenesulfonamide], for which the “PLA2 -inhibitory activity IC30, supernatant fraction” value in assay [1] is > 100 µM. In assay [2], the “PLA2 -inhibitory activity IC30, membrane fraction” value is 0.18 µM.
For `CN(C(=O)/C=C/c1ccc(S(C)(=O)=O)cc1)c1ccc(S(=O)(=O)N2CCCN(CC3CCCCC3)CC2)cc1` [Example 20, (E)-N-methyl-N-[4-(4-cyclohexylmethyl-1-homopiperazinyl)sulfonylphenyl]-3 (4 methylsulfonylphenyl)-2-propenamide], the “PLA2 -inhibitory activity IC30, supernatant fraction” value in assay [1] worked out at 92 µM. In assay [2], the “PLA2 -inhibitory activity IC30, membrane fraction” value stood at 0.045 µM.
Taken in the same sequence, the figures for `CN(C(=O)/C=C/c1ccc(S(C)(=O)=O)cc1)c1ccc(S(=O)(=O)N2CCCN(Cc3ccccc3)CC2)cc1` [Example 21, (E)-N-methyl-N-[4-(4-benzyl-1-homopiperazinyl)sulfonylphenyl]-3-(4-methylsulfonylphenyl)-2-propenamide] were > 100 µM and 0.055 µM.
Taken in the same sequence, the figures for `CN(C(=O)/C=C/c1ccc(S(C)(=O)=O)cc1)c1ccc(S(=O)(=O)N2CCN(CCc3ccccc3)CC2)cc1` [Example 22, (E)-N methyl-N-{4-[4-(2-phenylethyl)-piperazinyl]sulfonylphenyl}-3-(4-methylsulfonylphenyl)-2-propenamide] were > 100 µM and 0.050 µM.
Taken in the same sequence, the figures for `CN(C(=O)/C=C/c1ccc(C#N)cc1)c1ccc(S(=O)(=O)NC2CCCCCC2)cc1` [Example 25, N-cycloheptyl-4-{N-methyl-N-[(E)-3-(4-cyanophenyl)-2-propenoyl]amino}benzenesulfonamide] were 68 µM and 0.16 µM.
Take `CN(C(=O)/C=C/c1ccc(C#N)cc1)c1ccc(S(=O)(=O)NC2CCN(Cc3ccccc3)CC2)cc1` [Example 26, N-(1-benzyl-4-piperidyl)-4-{N-methyl-N-[(E)-3-(4-cyanophenyl)-2-propenoyl]amino}benzenesulfonamide]: in assay [1], the “PLA2 -inhibitory activity IC30, supernatant fraction” value came to 59 µM. Further, the “PLA2 -inhibitory activity IC30, membrane fraction” value in assay [2] came to 0.24 µM.
For `CN(C(=O)/C=C/c1ccc(-n2ccnc2)cc1)c1ccc(S(=O)(=O)NC2CCCCCC2)cc1` [Example 29] the same measures were 90 µM and 0.45 µM.
In the case of `CN(C(=O)/C=C/c1ccc(-n2ccnc2)cc1)c1ccc(S(=O)(=O)NC2CCCCCCC2)cc1` [Example 30, N-cyclooctyl-4-{N-methyl-N-[(E)-3-[4-(1-imidazolyl)phenyl]-2-propenoyl]amino}benzenesulfonamide], the “PLA2 -inhibitory activity IC30, supernatant fraction” value in assay [1] is > 100 µM. For the same molecule, the “PLA2 -inhibitory activity IC30, membrane fraction” value in assay [2] was 0.66 µM.
Regarding `CN(C(=O)/C=C/c1ccc([N+](=O)[O-])cc1)c1ccc(S(=O)(=O)NC2CCCCCC2)cc1` [Example 38, N-cycloheptyl-4-{N-methyl-N-[(E)-3-(4-nitrophenyl)-2-propenoyl]amino}benzenesulfonamide], the “PLA2 -inhibitory activity IC30, supernatant fraction” value in assay [1] was determined as 29 µM. Further, the “PLA2 -inhibitory activity IC30, membrane fraction” value in assay [2] came out at 0.12 µM.
For `CN(C(=O)/C=C/c1ccc(O)cc1)c1ccc(S(=O)(=O)NC2Cc3ccccc3C2)cc1` [Example 41, N-(2-indanyl)-4-{N-methyl-N-[(E)-3-(4-dihydroxyphenyl)-2-propenoyl]amino}benzenesulfonamide] the same measures were 46 µM and 0.98 µM.
Consider `CN(C(=O)/C=C/c1ccc(O)c(F)c1)c1ccc(S(=O)(=O)NC2CCCCCC2)cc1` [Example 43], for which the “PLA2 -inhibitory activity IC30, supernatant fraction” value in assay [1] is 62 µM. For the same molecule, the “PLA2 -inhibitory activity IC30, membrane fraction” value in assay [2] worked out at 3.49 µM.
Consider `CN(C(=O)/C=C/C=C/c1cc(Br)c(O)c(Br)c1)c1ccc(S(=O)(=O)NC2CCCCCC2)cc1` [Example 44, N-cycloheptyl-4-{N-methyl-N-[(2E, 4E)-5-(3,5-dibromo-4-hydroxyphenyl) -2,4-pentadienoyl]amino}benzenesulfonamide], for which the “PLA2 -inhibitory activity IC30, supernatant fraction” value in assay [1] stood at 39 µM. In addition, the “PLA2 -inhibitory activity IC30, membrane fraction” value in assay [2] is 5.1 µM.
Take `CN(C(=O)/C=C/C=C/c1ccc(O)c(O)c1)c1ccc(S(=O)(=O)NC2CCc3ccccc3C2)cc1` (stereo not drawn) [Example 48]: the “PLA2 -inhibitory activity IC30, supernatant fraction” value in assay [1] is 32 µM. Moreover, the “PLA2 -inhibitory activity IC30, membrane fraction” value in assay [2] stood at 1.7 µM.
In the case of `CN(C(=O)/C=C/c1ccc(O)c(O)c1)c1ccc(S(=O)(=O)NC2CCCCCC2)cc1` [Example 49, N-cycloheptyl-4-{N-methyl-N-[(E)-3-(3,4-dihydroxyphenyl)-2-propenoyl]amino}benzenesulfonamide], the “PLA2 -inhibitory activity IC30, supernatant fraction” value in assay [1] is 56 µM. Moreover, the “PLA2 -inhibitory activity IC30, membrane fraction” value in assay [2] was 1.8 µM.
Taken in the same sequence, the figures for `CN(C(=O)/C=C/C=C/c1ccc(O)c(O)c1)c1ccc(S(=O)(=O)NC2CCCCCC2)cc1` [Example 50, N-cycloheptyl-4-{N-methyl N-[(2E, 4E)-5-(3,4-dihydroxyphenyl)-2,4-pentadienoyl]amino}benzenesulfonamide] were 38 µM and 1.05 µM.
Take `CN(C(=O)/C=C/c1ccc(O)c(O)c1)c1ccc(S(=O)(=O)NC2CCCCC2)cc1` [Example 58, N-cyclohexyl-4-{N-methyl-N-[(E)-3-(3,4-dihydroxyphenyl)-2-propenoyl]amino}benzenesulfonamide]: in assay [1], the “PLA2 -inhibitory activity IC30, supernatant fraction” value came out at 64 µM. In addition, the “PLA2 -inhibitory activity IC30, membrane fraction” value in assay [2] is 1.5 µM.
For `CN(C(=O)/C=C/c1ccc(O)c(O)c1)c1ccc(S(N)(=O)=O)cc1` [Example 65, 4-{N-methyl-N-[(E)-3-(3,4-dihydroxyphenyl)-2-propenoyl]amino}benzenesulfonamide], the “PLA2 -inhibitory activity IC30, membrane fraction” value in assay [2] is 16 µM.
Still for that read-out and setting: under `COc1ccc(/C(=C/C(=O)Nc2ccc(S(N)(=O)=O)cc2)c2cccnc2)cc1OC` [Example 72] stands 41 µM.
Turning to `NS(=O)(=O)c1ccc(NC(=O)/C=C/c2ccc(O)c(O)c2)cc1` [Example 77], the “PLA2 -inhibitory activity IC30, supernatant fraction” value in assay [1] is > 100 µM. For the same molecule, the “PLA2 -inhibitory activity IC30, membrane fraction” value in assay [2] was found to be 20 µM.
Regarding `CN(C(=O)/C=C/c1ccc(O)c(F)c1)c1ccc(S(=O)(=O)NC2CCCCCCC2)cc1` [Example 87, N-cyclooctyl-4-{N-methyl-N-[(E)-3-(3-fluoro-4-hydroxyphenyl)-2-propenoyl]amino}benzenesulfonamide], in assay [2], the “PLA2 -inhibitory activity IC30, membrane fraction” value was found to be 2.1 µM.
